# Results taken from US20040009927A1, “Methods and compounds for reducing biofilm formulation” (priority 2002, published 2004).
# System: MG1655 and its csrA mutant TRMG1655, cya mutants and cya wild type
# Conditions: cAMP 2 or 5 mM in growth medium; in most cases
smiles,measurement,value
"Nc1ncnc2c1ncn2[C@@H]1O[C@@H]2COP(=O)(O)O[C@H]2[C@H]1O [cAMP, cyclic AMP]",biofilm formation by cya wild type strains,increased biofilm formation
